In patent US20170189444A1, “POLYMERIC COMPOSITIONS AND RELATED SYSTEMS AND METHODS FOR REGULATING BIOLOGICAL HYDROGELS” (CALIFORNIA INSTITUTE OF TECHNOLOGY, priority 2016, published 2017):

Key:
colonic mucus hydrogel [1] = experiment: Ex vivo penetration or exclusion of probes and polymers in adherent colonic mucus hydrogel; design: species or system mice; settings: washed explant, incubated 1-2 h at 4° C.
colonic mucus hydrogel [2] = experiment: Ex vivo polymer-induced compression of washed colonic mucus hydrogel (1 μm microparticle method); design: species or system mice; settings: 500 mM acetate
From the text: Each mouse was euthanized; the colon was removed and immediately flushed gently with ice-cold 1× PBS, and placed ˜1 cm long segments of the mid-colon in ice-cold PBS. […] The hydrogel thickness was detected through imaging of the washed tissue. […] This ensured that the microparticles deposited onto the mucus hydrogel surface. both the epithelium and the deposited microparticles were simultaneously imaged using confocal or two-photon reflectance microscopy. After measuring the initial washed mucus thickness, ˜0.2-2mL of the test polymer solution was gently deposited onto the exposed luminal surface and then collected the same 3D stacks at the same xy fields of view To measure the “percent compression”, or the overall percentage change in the thickness, of the colonic mucus after exposure to the polymer solution, the thickness was measured before and after exposure to the solution at the same five xy positions, using the distance between the epithelial surface and the deposited microparticles in the 3D stacks. To calculate the percentage compression, the percentage change in the thickness measured was calculated, as well as the measurement uncertainty (using the optical slice thickness as the experimental uncertainty in the measured thickness), at each of these five xy positions. The percentage compression was calculated as the mean of these five measured values. […]

Compound	penetration into or exclusion from adherent mucus hydrogel (colonic mucus hydrogel [1])	penetration into or exclusion from adherent mucus hydrogel (colonic mucus hydrogel [1]; listed as Fluorescent PEG 200 kDa)	mucus compression (colonic mucus hydrogel [2])
FITC-dextran [fluorescent dextran 2 MDa]	penetrate the hydrogel		
Methoxyl polyethylene glycol-FITC [mPEG-FITC 200k]	Penetration of mucus	penetrate the hydrogel	
CC(=O)O [acetate]			≈ 10%
